Test results: patent publication US20040054009A1, “(BIS)sulfonamide derivatives” (priority 2002, published 2004)

Tests used:
[1] = molecular target: human GluR4 (Homo sapiens, UniProt P48058); experiment: whole cell voltage clamp electrophysiological characterization of AMPA receptor potentiators (response to 100 μM glutamate); format: cell-based; conditions: HEK293 cells stably expressing human GluR4, voltage-clamped at −60 mV, Hill equation fit
Text: In another test, HEK293 cells stably expressing human GluR^4 (obtained as described in European Patent Application Publication No. EP-A1-0583917) were used in the electro-physiological characterization of AMPA receptor potentiators. The extracellular recording solution contained (in mM): 140 NaCl, 5 KCl, 10 HEPES, 1 MgCl2, 2 CaCl2, 10 glucose, pH=7.4 with NaOH, 295 mOsm kg^−1. The intracellular recording solution contained (in mM): 140 CsCl, 1 MgCl2, 10 HEPES, (N-[2-hydroxyethyl]piperazine-N^1-[2-ethanesulfonic acid]) 10 EGTA (ethylene-bis(oxyethylene-nitrilo)tetraacetic acid), pH=7.2 with CsOH, 295 mOsm kg^−1. […] Once stable baseline responses to this agonist challenge were obtained, the potentiator was introduced in the extracellular solution bathing the cells at the lowest concentration, and the response to 100 μM glutamate in the presence of this concentration of potentiator was determined.
The concentration of the potentiator, both in the bathing solution and co-applied with the agonist, was increased in half log units until the maximum potentiation was seen. […] Once the control responses to the agonist challenge were re-established, the potentiation of these responses by 100 μM cyclothiazide was determined by its inclusion in both the bathing solution and the agonist-containing solution. […]

[2] = molecular target: T1, human GluR4B receptor (Homo sapiens, UniProt P48058); experiment: potentiation of agonist-induced excitability, HEK cells expressing human GluR4B (Fluo3-AM fluorescence, glutamate); format: cell-based; conditions: human GluR4B receptor expressed in HEK 293 cells
T1 construct: expressed in transfected cells
T1 sequence (P48058 21-902): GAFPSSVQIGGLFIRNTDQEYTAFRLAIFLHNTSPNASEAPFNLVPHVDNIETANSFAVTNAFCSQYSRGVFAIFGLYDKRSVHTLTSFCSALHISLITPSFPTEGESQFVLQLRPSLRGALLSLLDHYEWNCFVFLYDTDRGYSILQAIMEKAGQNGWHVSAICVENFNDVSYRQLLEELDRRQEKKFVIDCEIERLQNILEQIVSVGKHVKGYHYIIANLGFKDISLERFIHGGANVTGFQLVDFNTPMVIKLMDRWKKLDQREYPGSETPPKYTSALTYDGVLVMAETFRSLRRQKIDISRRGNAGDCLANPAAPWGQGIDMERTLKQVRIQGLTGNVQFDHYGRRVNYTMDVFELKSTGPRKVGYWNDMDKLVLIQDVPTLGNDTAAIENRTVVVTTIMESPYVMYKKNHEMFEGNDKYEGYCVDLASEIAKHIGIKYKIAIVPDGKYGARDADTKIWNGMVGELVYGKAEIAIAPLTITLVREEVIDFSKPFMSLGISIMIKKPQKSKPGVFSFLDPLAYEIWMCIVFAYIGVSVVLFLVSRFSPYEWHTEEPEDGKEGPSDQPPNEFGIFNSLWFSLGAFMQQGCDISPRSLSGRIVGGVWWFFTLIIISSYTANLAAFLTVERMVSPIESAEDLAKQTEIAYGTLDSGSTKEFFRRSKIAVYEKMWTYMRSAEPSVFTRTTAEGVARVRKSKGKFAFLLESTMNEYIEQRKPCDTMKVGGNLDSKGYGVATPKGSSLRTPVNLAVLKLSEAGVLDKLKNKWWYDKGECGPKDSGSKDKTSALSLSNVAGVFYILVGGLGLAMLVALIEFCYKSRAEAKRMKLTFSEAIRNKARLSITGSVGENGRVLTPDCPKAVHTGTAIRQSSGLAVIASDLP
Experimental: 96 well plates containing confluent monolayers of HEK cells stably expressing human GluR^4B (obtained as described in European Patent Application Publication Number EP-A1-583917) were prepared. The tissue culture medium in the wells was then discarded, and the wells were each washed once with 200 μl of 5NaCa buffer (glucose, 10 mM, sodium chloride, 138 mM, magnesium chloride, 1 mM, potassium chloride, 5 mM, calcium chloride, 5 mM, N-[2-hydroxyethyl]-piperazine-N-[2-ethanesulfonic acid], 10 mM, to pH 7.1 to 7.3). The plates were then incubated for 60 minutes in the dark with 20 μM Fluo3-AM dye (obtained from Molecular Probes Inc, Eugene, Oreg.) in 5 NaCa buffer in each well. After the incubation, each well was washed once with 100 μl 5NaCa buffer, 200 μl of 5NaCa buffer was added and the plates were incubated for 30 minutes. […]
Each test was then performed as follows. […] A first reading was then taken using a FLUOROSKAN II fluorimeter (Obtained from Labsystems, Needham Heights, Mass., USA, a Division of Life Sciences International Plc). […] A second reading was then taken using the fluorimeter. The plate was then left in the fluorimeter for 5 minutes, and a third reading was taken. 15 μl of 400 μM glutamate solution was then added to each well (final glutamate concentration 100 μM), and a fourth reading was taken immediately. Approximately three minutes later, a fifth reading was taken. […]

human GluR4, sequence (P48058 21-902): as above

| SMILES | melting point [°C] | further results |
| --- | --- | --- |
| CC(C)(C)c1ccc(C2(CNS(=O)(=O)C(F)(F)F)CC2)cc1 [Example 24, N−1-(4-t-butylphenyl)cyclopropylmethyl Trifluoromethanesulfonamide] | 82 to 84 | – |
| CC(C)S(=O)(=O)NCC1(c2ccc(C(C)(C)C)cc2)CC1 [Example 25, N-1-(4-t-butylphenyl)cyclopropylmethyl 2-propanesulfonamide] | 87 to 89.5 | – |
| CC(CNS(=O)(=O)C(C)C)c1ccc(-c2ccsc2)cc1 (stereo not shown) [Example 28] | – | EC50 [1]: 0.23 ± 0.059 µM |
| NS(=O)(=O)c1cc2c(cc1Cl)NC(C1CC3C=CC1C3)NS2(=O)=O (stereo not shown) [cyclothiazide] | – | potentiation of agonist-induced excitability of human GluR4B receptor [2]: potentiate agonist-induced excitability |
